Structures can show the parent of a compound that is named as a salt. Where two headings read alike, the source gives them in different places.
Key:
[1] = test system: expanded OPCs; assay: cells; conditions: for viability at 0.1 µM / viability at 1 µM / viability at 10 µM: Rattus norvegicus, 72 h
Experimental: Having established a consistent assay for measuring OL differentiation in vitro, the next step was to utilize this assay to assess the ability of a wide array of compounds to promote OL differentiation. Prior to library screening, we first established the maximum non-toxic dose of each compound in the library. […] Therefore, we added each compound in the NIH clinical collection (NCC) library to OPCs at 10, 1, and 0.1 µM concentrations. Three days later, we assessed viability of the treated cells by measuring AlamarBlue fluorescence, a measure of cell viability (see “Methods” section). […] Appropriately, we established three sets of screening concentrations for library compounds: non-toxic compounds were tested at 10 and 2 µM, slightly toxic compounds (only toxic at 10 µM) were tested at 2 and 0.4 µM, and very toxic compounds were tested at 0.4 and 0.08 µM.
OPCs were expanded in vitro by seeding into PDL-coated tissue culture flasks at 1000–2000 cells/cm^2 in differentiation media supplemented with 10 ng/ml PDGF-AA. Proliferating OPCs were fed every 2–3 days and supplemented with 2–3× concentration of PDGF as needed to prevent OPC differentiation. After 6–7 days of proliferation, OPCs were harvested by trypsinization, plated into PDL-coated 96-well Falcon plates and centrifuged at 200×g to facilitate cell attachment, survival, and even distribution of cells. Expanded OPCs were seeded in differentiation media at 10,000 cells/well and incubated for 2 h at 37 °C, 10 % CO2 prior to addition of compounds. The NCC library was diluted and added to cells at 10, 1, and 0.1 µM; each concentration was tested in quadruplicate. As a positive control for the induction of toxicity, 5 ng/ml tunicamycin was added to 8 wells in each plate. Three days later, a 1:10 dilution of alamarBlue® (AB) was added to each well and cells were incubated 4 h at 37 °C, 10 % CO2. AB fluorescence was measured using a PerkinElmer Victor II fluorescence microplate reader (PerkinElmer, Waltham, MA) with 560 nm excitation/590 nm emission filters. For library screening, the highest concentration of each compound was adjusted to a minimally toxic concentration based on this toxicity data. Compounds were additionally tested at a second concentration that was 1/5th of the top concentration. The final concentration of DMSO in each well was 0.1 %.

[2] = test system: acutely dissociated and purified rat OPCs; assay: Acute OL differentiation assay (MBP expression/cell, immunofluorescent image quantification); assay type: cell-based; conditions: for activation at 0.4 µM: 0.4 uM test compound, read-out: OL differentiation, 0.4 uM (% Quet)
Experimental: In order to identify compounds with the potential to promote OL differentiation in vivo and thereby enhance remyelination, we first wanted to establish an in vitro assay system that would closely mimic conditions in vivo. To do this, we started by using OPCs acutely isolated from postnatal day 6–7 (P6–7) rat brains by O4 immunopanning. […] OPCs were plated directly onto a biological substrate (PDL/laminin) in 96-well view plates at moderate density to allow for sufficient room to expand processes during differentiation. We plated cells in serum-free medium lacking OPC mitogens (no PDGF or FGF) to allow a basal level of OL differentiation to commence, and as a positive control added thyroid hormone (T3, 40 ng/ml) to accelerate differentiation (Fig. 1, flow scheme).
Fig. 1 Flow scheme of the acute OL differentiation assay. a Purified oligodendrocyte precursor cells (OPCs) were cultured from P7 rat cortex and plated into PDL/laminin pre-coated 96-well plates. b One hour later test compounds were added. c OPC cultures with compound were maintained in culture for an additional 4 days. d On the 5th day with compound, cells were fixed and immunostained with anti-MBP antibodies and DAPI. e Images were acquired with automated fluorescence microscopy and scored phenotypically for OL differentiation (see “Methods” section)
To quantify the extent of OL differentiation occurring in treatment conditions, we measured the overall amount of MBP expression/cell (see “Methods” section). Figure 2a depicts the mask created over MBP staining under which the MBP expression was quantified. […]
All animal work was carried out in strict accordance with the recommendations in the Guide for the Care and Use of Laboratory Animals of the National Institutes of Health. The protocol was approved by the Institutional Use and Care and Use Committee at the Molecular Medicine Research Institute (Sunnyvale, CA). Animals used for OPC isolation in these studies were euthanized by decapitation. OPCs from brains of P6-P7 Sprague–Dawley rat pups (Charles River, Wilmington, MA, USA) were enriched by immunopanning as previously described (Dugas et al. 2006). Briefly, single cell suspensions were obtained from papain-digested neonatal brains and depleted of mature glial cells by successive panning with RAN-2- and GalC-coated plates, followed by enrichment for OPCs using O4-coated plates. OPCs were plated in differentiation media (DMEM, 100 U/ml Penicillin/100 µg/ml streptomycin, 2 mM L-glutamine, 1 mM Na pyruvate, 5 µg/ml insulin, 5 µg/ml N-acetyl-L-cysteine, 1× trace elements B,10 ng/ml d-Biotin, 100 µg/ml BSA, 100 µg/ml apo-transferrin, 16 µg/ml putrescine, 60 ng/ml progesterone, 40 ng/ml sodium selenite 5 ng/ml forskolin, 10 ng/ml CNTF, 1 ng/ml NT-3).
Acutely enriched OPCs were plated in differentiation media at 5000 cells/well into PDL/laminin coated 96-well view plates and centrifuged at 200×g to facilitate cell attachment, survival, and even distribution of OPCs. OPCs were pre-incubated for 1–2 h at 37 °C in 10 % CO2, followed by the addition of test compounds in quadruplicate. Controls were added in eight replicate wells, negative control = 0.1 % DMSO; positive control = 40 ng/ml T3. The day of OPC plating was considered DIV0. On DIV4, cells were fixed, immunostained for myelin basic protein (MBP) expression, imaged and quantified as described below.

[3] = read-out: 0.1 µM (% DMSO), alamarBlue viability, NCC library compound at 0.1 µM, sheet "All Tox data"
[4] = read-out: 1 µM (% DMSO), alamarBlue viability, NCC library compound at 1 µM, sheet "All Tox data"
[5] = read-out: 10 µM (% DMSO), alamarBlue viability, NCC library compound at 10 µM, sheet "All Tox data"
[6] = Rattus norvegicus, 2 uM test compound, relative to quetiapine, sheet "All OLga data", read-out: OL differentiation, 2 uM (% Quet)
[7] = Rattus norvegicus, 10 uM test compound, relative to quetiapine, sheet "All OLga data", read-out: OL differentiation, 10 uM (% Quet)
[8] = read-out: 0.1 µM (% DMSO), alamarBlue viability of expanded OPCs, compound at 0.1 µM, sheet All Tox data
[9] = read-out: 1 µM (% DMSO), alamarBlue viability of expanded OPCs, compound at 1 µM, sheet All Tox data
[10] = read-out: 10 µM (% DMSO), alamarBlue viability of expanded OPCs, compound at 10 µM, sheet All Tox data
[11] = alamarBlue viability of expanded OPCs, compound at 0.1 µM, relative to DMSO control
[12] = alamarBlue viability of expanded OPCs, compound at 1 µM, relative to DMSO control
[13] = alamarBlue viability of expanded OPCs, compound at 10 µM, relative to DMSO control
[14] = alamarBlue viability, NCC library compound at 0.1 µM, sheet "All Tox data"
[15] = alamarBlue viability, NCC library compound at 1 µM, sheet "All Tox data"
[16] = alamarBlue viability, NCC library compound at 10 µM, sheet "All Tox data"
[17] = Rattus norvegicus, relative to quetiapine, sheet "All OLga data"
[18] = Rattus norvegicus, test compound at 2 uM, NCC library screen, sheet "All OLga data", relative to quetiapine, read-out: 2 uM (% Quet)
[19] = Rattus norvegicus, test compound at 10 uM, NCC library screen, sheet "All OLga data", relative to quetiapine, read-out: 10 uM (% Quet)

## O=C1CN2Cc3c(ccc(Cl)c3Cl)N=C2N1 [Anagrelide hydrochloride]
[1]; [3]
  viability at 0.1 µM: 93.1%
[1]; [4]
  viability at 1 µM: 90.4%
[1]; [5]
  viability at 10 µM: 81.2%
[2]; [6]
  activation at 2 µM: -7%
[2]; [7]
  activation at 10 µM: -4.5%

## Cc1c(O)c(=O)ccn1C [Deferiprone]
[1]; [8]
  viability at 0.1 µM: 91.3%
[1]; [9]
  viability at 1 µM: 90.1%
[1]; [10]
  viability at 10 µM: 84.8%
[2]; [6]
  activation at 2 µM: 6.6%
[2]; [7]
  activation at 10 µM: 37.1%

## CC(C)NCC(O)c1cc(O)cc(O)c1 (centres unmarked) [Metaproterenol]
[1]; [11]
  0.1 µM (% DMSO): 89.2 % DMSO
[1]; [12]
  1 µM (% DMSO): 91.6 % DMSO
[1]; [13]
  10 µM (% DMSO): 91.1 % DMSO
[2]; Rattus norvegicus, test compound at 2 uM, MBP expression relative to quetiapine, NCC library screen, sheet "All OLga data", read-out: 2 uM (% Quet)
  activation at 2 µM: -0.7%
[2]; Rattus norvegicus, test compound at 10 uM, MBP expression relative to quetiapine, NCC library screen, sheet "All OLga data", read-out: 10 uM (% Quet)
  activation at 10 µM: 3.5%

## C[C@H](N[C@@H](CCc1ccccc1)C(=O)O)C(=O)N1CCC[C@H]1C(=O)O [Enalaprilat]
[1]; [14]
  0.1 µM (% DMSO): 92.9 % DMSO
[1]; [15]
  1 µM (% DMSO): 91.2 % DMSO
[1]; [16]
  10 µM (% DMSO): 83.0 % DMSO
[2]; 2 uM test compound, relative to quetiapine, sheet "All OLga data"
  OL differentiation, 2 uM (% Quet): -17.8 % Quet
[2]; 10 uM test compound, relative to quetiapine, sheet "All OLga data"
  OL differentiation, 10 uM (% Quet): -49.3 % Quet

## CN1C(=O)CN=C(c2ccccc2)c2cc(Cl)ccc21 [Diazepam]
[1]; read-out: 0.1 µM (% DMSO)
  viability at 0.1 µM: 92.5%
[1]; read-out: 1 µM (% DMSO)
  viability at 1 µM: 97.2%
[1]; read-out: 10 µM (% DMSO)
  viability at 10 µM: 102%
[2]; Rattus norvegicus, read-out: 2 uM (% Quet)
  activation at 2 µM: 3.8%
[2]; Rattus norvegicus, read-out: 10 uM (% Quet)
  activation at 10 µM: -14.1%

## CC(Cc1ccccc1)(NC(=O)CN)c1ccccc1 (centres unmarked) [Remacemide]
[1]; [3]
  viability at 0.1 µM: 113%
[1]; [4]
  viability at 1 µM: 88.6%
[1]; [5]
  viability at 10 µM: 44.7%
[2]; [17]
  activation at 0.4 µM: 5.6%
[2]; [6]
  activation at 2 µM: 4.8%

## CC1=C(CC(=O)O)c2cc(F)ccc2/C1=C\c1ccc([S+](C)[O-])cc1 (centres unmarked) [Sulindac]
[1]; [11]
  0.1 µM (% DMSO): 90.8 % DMSO
[1]; [12]
  1 µM (% DMSO): 94.4 % DMSO
[1]; [13]
  10 µM (% DMSO): 90.3 % DMSO
[2]; [18]
  activation at 2 µM: 0.6%
[2]; [19]
  activation at 10 µM: -11.2%

## CCN(C(C)=O)c1cccc(-c2ccnc3c(C#N)cnn23)c1 [Zaleplon]
[1]; [3]
  viability at 0.1 µM: 87.8%
[1]; [4]
  viability at 1 µM: 86.8%
[1]; [5]
  viability at 10 µM: 86.1%
[2]; [18]
  activation at 2 µM: 12.3%
[2]; [19]
  activation at 10 µM: -15.8%

## CCCc1nc(C(C)(C)O)c(C(=O)O)n1Cc1ccc(-c2ccccc2-c2nnn[nH]2)cc1 [Olmesartan]
[1]; [8]
  viability at 0.1 µM: 91.4%
[1]; [9]
  viability at 1 µM: 87.4%
[1]; [10]
  viability at 10 µM: 93.9%
[2]; [6]
  activation at 2 µM: -15.6%
[2]; [7]
  activation at 10 µM: -11.9%

## CN1CCc2cc(Cl)c(O)cc2[C@@H](c2ccccc2)C1 [R(+) SCH 23390]
[1]; [14]
  0.1 µM (% DMSO): 84.2 % DMSO
[1]; [15]
  1 µM (% DMSO): 78.8 % DMSO
[1]; [16]
  10 µM (% DMSO): 64.1 % DMSO
[2]; test compound at 0.4 uM, NCC library screen, sheet "All OLga data", relative to quetiapine
  0.4 uM (% Quet): -16.1 % Quet
[2]; test compound at 2 uM, NCC library screen, sheet "All OLga data", relative to quetiapine
  2 uM (% Quet): -24.3 % Quet

## O=c1c(-c2ccccc2)c1-c1ccccc1 [Diphenylcyclopropenone]
[1]; [8]
  viability at 0.1 µM: 73.9%
[1]; [9]
  viability at 1 µM: 65%
[1]; [10]
  viability at 10 µM: 11.7%
[2]; [17]
  activation at 0.4 µM: 8.6%

## COc1ccc(CN2CCN(C(c3ccc(F)cc3)c3ccc(F)cc3)CC2)c(OC)c1OC [Lomerizine]
[1]; [3]
  viability at 0.1 µM: 92.5%
[1]; [4]
  viability at 1 µM: 58.5%
[1]; [5]
  viability at 10 µM: 11%
[2]; [17]
  activation at 0.4 µM: 0.09%
[2]; [6]
  activation at 2 µM: -3.9%

## CC[C@]1(O)C[C@@H]2CN(CCc3c([nH]c4ccccc34)[C@@](C(=O)OC)(c3cc4c(cc3OC)N(C)[C@H]3[C@@](O)(C(N)=O)[C@H](O)[C@]5(CC)C=CCN6CC[C@]43[C@@H]65)C2)C1 [Vindesine]
[1]; [4]
  viability at 1 µM: 11.4%
[1]; [5]
  viability at 10 µM: 9.2%
[2]; Rattus norvegicus, test compound at 0.08 uM, NCC library screen, sheet "All OLga data", relative to quetiapine, read-out: 0.08 uM (% Quet)
  activation at 0.08 µM: -193%
